Our source for the Kd values is publication PMC12541610 (Acta Pharmaceutica Sinica. B, 2025).

This assay concerns the target ATP synthase F1 subunit alpha (ATP5A1) (Mus musculus, UniProt Q03265). Nature of the assay: intrinsic fluorescence titration of purified protein. The format is binding.

ATP synthase F1 subunit alpha (ATP5A1), sequence (Q03265 whole entry): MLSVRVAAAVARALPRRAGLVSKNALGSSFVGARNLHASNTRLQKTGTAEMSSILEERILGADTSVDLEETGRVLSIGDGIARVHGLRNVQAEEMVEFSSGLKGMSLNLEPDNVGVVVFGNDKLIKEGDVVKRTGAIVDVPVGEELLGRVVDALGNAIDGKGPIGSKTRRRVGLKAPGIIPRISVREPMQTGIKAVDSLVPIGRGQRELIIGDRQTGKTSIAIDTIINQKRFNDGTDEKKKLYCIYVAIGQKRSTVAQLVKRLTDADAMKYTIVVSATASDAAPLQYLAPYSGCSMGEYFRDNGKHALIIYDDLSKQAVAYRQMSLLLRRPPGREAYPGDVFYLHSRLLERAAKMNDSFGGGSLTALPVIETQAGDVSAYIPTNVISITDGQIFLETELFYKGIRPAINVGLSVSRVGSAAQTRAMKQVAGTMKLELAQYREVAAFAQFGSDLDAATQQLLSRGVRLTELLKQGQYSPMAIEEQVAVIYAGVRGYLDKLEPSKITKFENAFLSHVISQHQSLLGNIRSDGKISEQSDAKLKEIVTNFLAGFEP

Take `C=C(C)[C@@H]1CCC(C)=C[C@H]1c1c(O)cc(CCCCC)cc1O` [Cannabidiol]: binding was characterised by a dissociation constant (Kd) of 4.9 ± 1.2 µM.
